Measured values published in patent EP1268487B1, “TRICYCLIC PROTEIN KINASE INHIBITORS” (Wyeth, priority 2000, dated 2001).
In brackets after ≈: the same amount, converted by molar mass.

Columns and labels:
[1] = molecular target: T1, Raf-1 (c-Raf) (Homo sapiens, UniProt P04049); experiment: Raf-1 kinase cascade assay; assay type: biochemical
T1 construct: Sf9 insect cell lysate containing full length 6his-tagged recombinant human c-Raf; 6his; host or cells: c-Raf: Sf9 insect cell lysate; MEK1 and MAPK: E. coli
T1 sequence (P04049 whole entry): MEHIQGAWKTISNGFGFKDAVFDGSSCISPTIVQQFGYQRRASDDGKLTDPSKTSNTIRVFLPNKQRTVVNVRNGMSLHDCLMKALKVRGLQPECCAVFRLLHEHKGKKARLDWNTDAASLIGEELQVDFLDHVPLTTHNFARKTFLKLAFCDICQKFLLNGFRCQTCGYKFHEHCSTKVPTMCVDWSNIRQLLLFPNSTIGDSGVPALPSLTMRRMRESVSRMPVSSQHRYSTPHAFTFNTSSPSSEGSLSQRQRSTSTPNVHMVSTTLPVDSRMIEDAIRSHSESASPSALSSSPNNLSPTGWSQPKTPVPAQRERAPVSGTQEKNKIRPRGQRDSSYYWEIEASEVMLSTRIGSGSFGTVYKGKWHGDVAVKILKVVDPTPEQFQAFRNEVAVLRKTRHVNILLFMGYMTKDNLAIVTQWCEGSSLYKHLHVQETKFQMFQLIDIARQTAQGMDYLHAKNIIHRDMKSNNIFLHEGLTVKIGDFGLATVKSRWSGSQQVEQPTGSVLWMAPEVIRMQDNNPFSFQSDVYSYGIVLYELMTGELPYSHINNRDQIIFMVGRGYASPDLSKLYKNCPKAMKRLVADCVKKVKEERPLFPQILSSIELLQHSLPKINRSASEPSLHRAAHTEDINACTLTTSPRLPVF
Description: (Specific Activity: ∼200U/ml). Human Non-active Mek-1-GST and human GST-MAP kinase (recombinant proteins produced in E. coli ). • Stock Solutions c-Raf Assay: • 1. Assay Dilution Buffer (ADB): 20mM MOPS, pH 7.2, 25mM β-glycerol phosphate, 5mM EGTA, 1mM sodium orthovanadate, 1mM dithiothreitol. • 2. Magnesium/ATP Cocktail: 500µM cold ATP and 75 mM magnesium chloride in ADB. • 4. Active Kinase: Human Active c-Raf: Use at 0.4U per assay point. • 5. Non-active GST-MEK1: Use at 0.1µg per assay point. • 6. Non-active GST-p42 MAP Kinase: Use at 1.0 µg per assay point. • Stock Solutions ELISA: • 1. TBST - Tris (50 mM, pH 7.5), NaCl ( 150 mM), Tween-20 (0.05 %) • 2. Superblock (Pierce) • 3. Anti-GST Ab (Pharmacia) • 4. Anti-Phospho MAPK (Sigma) • 5. Anti-Mouse Ab / Europium conjugate (Wallac) • Assay Procedure: • First Stage: c-Raf Dependent Activation of GST-MEK and GST-MAPK • 1. Add […] of ADB per assay (i.e. per well of a 96 well plate) • 2. Add 10 ml of 0.5 mM cold ATP and 75 mM magnesium chloride in ADB. • 3. Add 2 ml of c-Raf (0.4U/assay), in conjunction with 1.6ml non-active MEK1 ([…]). • 4. Add 4 ml of non-active GST-p42 MAP Kinase ([…]). • 5. Incubate for 60 minutes at 30°C in a shaking incubator. • 6. Transfer this mixture to an anti-GST Ab coated 96 well plate (Nunc Immunosorb plates coated o/n with a-GST, then blocked with Pierce Superblock). • 7. Incubate for 60 minutes at 30°C in a shaking incubator • 8. Wash 3X with TBST, add Anti-Phospho MAPK (Sigma) (1:3000) • 9. Incubate for 60 minutes at 30°C in a shaking incubator • 10. Wash 3X with TBST, add Anti-Mouse Ab / Europium conjugate (Wallac) (1:500) • 11. Incubate for 60 minutes at 30°C in a shaking incubator • 12. Wash 3X with TBST, Read plates in Wallac Victor model Plate Reader. • 13. Collect data analyze in Excel for single point and IC50 determinations.
Typically Raf-1 assay is run at compound concentrations from 10 µM to 30 nM in half log dilutions. (% inhibition is determined for each compound concentration).

[2] = system: Her2Neu; experiment: Inhibition of cancer cell growth as measured by cell number (Sulforhodamine B); assay type: cell-based; conditions: 48 hours exposure; 3T3 line transfected with Her2 receptor kinase
Description: (§1) Human tumor cell lines were plated in 96-well plates (250 µl/well, 1-6 x 10^4 cells/ml) in RPMI 1640 medium, containing 5% FBS (Fetal Bovine Serum). […] After 48 hours exposure to test compounds, cells were fixed with trichloroacetic acid, and stained with Sulforhodamine B. After washing with trichloroacetic acid, bound dye was solubilized in 10 mM Tris base and optical density was determined using a plate reader. Under conditions of the assay the optical density is proportional to the number of cells in the well. IC50s (concentrations causing 50% inhibition of cell growth) were determined from the growth inhibition plots. The test procedure is described in details by Philip Skehan et. al, J.Natl. Canc. Inst., 82, 1107-1112 (1990). […] Information about some of the cell lines used in these test procedures is available from the American Type Tissue Collection: Cell Lines and Hybridomas, 1994 Reference Guide, 8th Edition. The Her2Neu cell line is a 3T3 line that has been transfected with Her2 receptor kinase.

[3] = system: A431; experiment: as above; assay type: cell-based; conditions: Homo sapiens, A-431; 48 hours exposure
Description: as §1

[4] = system: SW620; experiment: as above; assay type: cell-based; conditions: Homo sapiens, SW-620; 48 hours exposure
Description: as §1

[5] = system: MDA435; experiment: as above; assay type: cell-based; conditions: Homo sapiens, 48 hours exposure
Description: as §1

[6] = system: 3T3; experiment: as above; assay type: cell-based; conditions: Mus musculus, NIH3T3; 48 hours exposure
Description: as §1

[7] = system: SKBR3; experiment: as above; assay type: cell-based; conditions: Homo sapiens, SK-BR-3; 48 hours exposure
Description: as §1

inhibition at 0.03 µg/mL ([1]; dose 0.03 µg/mL): -5% | inhibition at 0.1 µg/mL ([1]; dose 0.1 µg/mL): 2% | inhibition at 0.3 µg/mL ([1]; dose 0.3 µg/mL): 8% | inhibition at 1 µg/mL ([1]; dose 1.0 µg/mL): 16% | inhibition at 3 µg/mL ([1]; dose 3.0 µg/mL): 68% | inhibition at 10 µg/mL ([1]; dose 10.0 µg/mL): 90% | IC50 [2]: 3.9 µg/mL (≈ 11 µM) | IC50 [3]: 0.527 µg/mL (≈ 1.49 µM) | IC50 [4]: 2.9 µg/mL (≈ 8.17 µM) | IC50 [5]: 1.43 µg/mL (≈ 4.03 µM) | IC50 [7]: 0.968 µg/mL (≈ 2.73 µM)
SMILES: N#Cc1cnc2cc3c(cc2c1Nc1ccc(F)c(Cl)c1)NCCO3 [Example 7, 9-(3-Chloro-4-fluoroanilino)-2,3-dihydro-1H-[1,4]oxazino[3,2-g]quinoline-8-carbonitrile]
IC50 [6]: 3.02 µg/mL (≈ 8.51 µM)
